Results on 2 compounds are retold here after BindingDB's records for PubMed 31759729 (University of Electronic Science and Technology of China, 2020).

The target in the test is cGMP-specific 3',5'-cyclic phosphodiesterase (Homo sapiens, UniProt O76074). Kind of test: Inhibition of PDE-5A (unknown origin).

In general, pIC50 refers to the negative decadic logarithm of the IC50, by convention in mol/L. The low end stands for a high IC50, the high end for a low IC50.

pIC50: −log10 of the molar value.

For the compound `CC(C)=CCC1=C(O)c2c(occ(-c3ccc(O[N+](=O)[O-])cc3)c2=O)C2C=CC(C)(C)OC12` (configuration not stated), the pIC50 was 6.30.
`CC(C)=CCc1c(O)c2c(c3c1OC(C)(C)C=C3)CC=C(c1ccc3c(c1)OCCO3)C2=O`: the pIC50 is 5.57.
